{
  "source": "patent US20240209028A1",
  "about": "“CNP COMPOUNDS” (priority 2022, published 2024)",
  "biological_target": "T1, human natriuretic peptide receptor 2 (hNPR2) (Homo sapiens, UniProt P20594)",
  "T1 construct": "expressed in transfected cells; host or cells: HEK293 (ATCC CRL-1573), clone 35, co-transfected with pGloSensor-42F",
  "T1 sequence (P20594 23-1047)": "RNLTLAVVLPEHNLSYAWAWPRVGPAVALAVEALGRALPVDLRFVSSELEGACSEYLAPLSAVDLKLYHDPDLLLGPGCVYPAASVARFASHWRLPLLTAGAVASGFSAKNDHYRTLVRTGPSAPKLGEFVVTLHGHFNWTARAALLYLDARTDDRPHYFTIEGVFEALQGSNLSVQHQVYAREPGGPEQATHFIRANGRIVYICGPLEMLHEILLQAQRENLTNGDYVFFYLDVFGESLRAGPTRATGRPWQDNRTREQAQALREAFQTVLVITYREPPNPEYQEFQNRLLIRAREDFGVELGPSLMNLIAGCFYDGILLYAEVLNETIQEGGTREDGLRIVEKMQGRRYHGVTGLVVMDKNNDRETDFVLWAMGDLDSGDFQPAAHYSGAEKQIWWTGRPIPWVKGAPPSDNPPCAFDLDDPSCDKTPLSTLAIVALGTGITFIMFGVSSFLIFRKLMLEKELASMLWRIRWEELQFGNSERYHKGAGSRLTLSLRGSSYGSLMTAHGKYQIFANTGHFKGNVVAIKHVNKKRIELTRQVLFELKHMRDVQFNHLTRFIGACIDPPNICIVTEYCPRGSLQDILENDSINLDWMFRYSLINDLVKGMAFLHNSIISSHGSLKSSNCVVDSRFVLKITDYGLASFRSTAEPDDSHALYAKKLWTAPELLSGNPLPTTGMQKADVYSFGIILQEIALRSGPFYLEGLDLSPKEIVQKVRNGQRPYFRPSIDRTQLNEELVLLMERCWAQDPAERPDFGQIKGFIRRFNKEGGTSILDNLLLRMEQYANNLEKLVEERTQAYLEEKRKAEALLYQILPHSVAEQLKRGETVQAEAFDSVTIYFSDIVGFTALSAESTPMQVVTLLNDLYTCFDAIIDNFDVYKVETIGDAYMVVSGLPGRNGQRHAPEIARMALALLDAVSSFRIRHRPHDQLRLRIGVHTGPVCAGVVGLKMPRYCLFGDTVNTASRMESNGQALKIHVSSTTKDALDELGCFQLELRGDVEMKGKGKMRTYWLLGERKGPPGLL",
  "assay": "In vitro hNPR2 activity assay (cGMP GloSensor reporter, HEK293)",
  "format": "cell-based",
  "details": "for EC50: 0% HSA, HEK293-hNPR2/GloSensor cells; for hNPR2 0% HSA. [EC50% rel CNP]: potency relative to CNP22 (0065)",
  "in_short": "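Potency is the EC50 from a four-parameter logistic fit, also expressed relative to the in-plate CNP22 control (×100), with at least two replicates. Compounds (ten concentrations, […], HSA-free diluent with 1% OVA, 0.01% Tween20) were incubated 30 min at 37 °C on HEK293 cells co-expressing hNPR2 and a GloSensor cGMP luciferase. Luminescence detected with Bright-Glo.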",
  "note": "Starred links: 1 amine or outer side, 2 acyl side, 3 side chain; linkers in the order of their positions; H or OH if unused. Positions of bridges follow the written chain, without caps; N, C: chain ends. Residues, ends and D or L forms follow the SMILES beside them. *: point of attachment. C18 diacid = O=C(O)CCCCCCCCCCCCCCCCC(=O)*; γGlu = O=C(O)[C@H](CCC(=O)[*:2])N[*:1]; AEEA = NCCOCCOCC(=O)O",
  "data": [
    {"smiles": "CC[C@H](C)[C@@H]1NC(=O)[C@H](CCCNC(=N)N)NC(=O)[C@H](CCC(=O)O)NC(=O)[C@H](CC(C)C)NC(=O)[C@H](CCCCN)NC(=O)[C@H](CC(C)C)NC(=O)CNC(=O)[C@H](Cc2ccccc2)NC(=O)[C@@H](NC(=O)CNC(=O)[C@H](CCCCN)NC(=O)[C@H](CO)NC(=O)[C@H](CC(C)C)NC(=O)CNC(=O)[C@H](CCCCN)NC(=O)[C@H](CCCCN)NC(=O)[C@H](CCC(N)=O)NC(=O)[C@H](C)NC(=O)CNC(=O)[C@H](CCCCN)NC(=O)[C@H](Cc2ccc(O)cc2)NC(=O)[C@H](CCCCN)NC(=O)[C@H](CCCNC(=N)N)NC(=O)[C@H](C)NC(=O)COCCOCCNC(=O)COCCOCCNC(=O)CC[C@H](NC(=O)CCCCCCCCCCCCCCCCC(=O)O)C(=O)O)CSSC[C@@H](C(=O)O)NC(=O)CNC(=O)[C@H](CC(C)C)NC(=O)CNC(=O)[C@H](CO)NC(=O)[C@H](CC(C)C)NC(=O)[C@H](CO)NC(=O)CNC1=O", "note": "[compound 0776] ({C18 diacid-γGlu-AEEA-AEEA}-ARKYKGAQKKGLSKGCFGLKLERIGSLSGLGC-OH; disulfide 16-32)", "values": [
      {"measurement": "EC50", "value": 0.58, "unit": "nM"},
      {"measurement": "hNPR2 0% HSA. [EC50% rel CNP]", "value": 33.2, "unit": "%"}
    ]},
    {"smiles": "CC[C@H](C)[C@@H]1NC(=O)[C@H](CCCNC(=N)N)NC(=O)[C@H](CC(=O)O)NC(=O)[C@H](CC(C)C)NC(=O)[C@@H]2CCCN2C(=O)[C@H](CC(C)C)NC(=O)CNC(=O)[C@H](Cc2ccccc2)NC(=O)[C@@H](NC(=O)CNC(=O)[C@H](CCCCN)NC(=O)[C@H](CO)NC(=O)[C@H](CC(C)C)NC(=O)CNC(=O)[C@H](CCCCN)NC(=O)[C@H](CCCCN)NC(=O)[C@H](CCC(N)=O)NC(=O)[C@H](C)NC(=O)CNC(=O)[C@H](CCC(=O)O)NC(=O)[C@H](Cc2ccc(O)cc2)NC(=O)COCCOCCNC(=O)COCCOCCNC(=O)CC[C@H](NC(=O)CCCCCCCCCCCCCCCCC(=O)O)C(=O)O)CSSC[C@@H](C(=O)O)NC(=O)CNC(=O)[C@H](CC(C)C)NC(=O)CNC(=O)[C@H](CO)NC(=O)[C@H](CC(C)C)NC(=O)[C@H](CO)NC(=O)CNC1=O", "note": "[compound 1225] ({C18 diacid-γGlu-AEEA-AEEA}-YEGAQKKGLSKGCFGLPLDRIGSLSGLGC-OH; disulfide 13-29)", "values": [
      {"measurement": "hNPR2 0% HSA. [EC50% rel CNP]", "value": 29.4, "unit": "%"}
    ]},
    {"smiles": "CC[C@H](C)[C@@H]1NC(=O)[C@H](CCCNC(=N)N)NC(=O)[C@H](CC(=O)O)NC(=O)[C@H](CC(C)C)NC(=O)[C@@H]2CCCN2C(=O)[C@H](CC(C)C)NC(=O)CNC(=O)[C@H](Cc2ccccc2)NC(=O)[C@@H](NC(=O)CNC(=O)[C@H](CO)NC(=O)[C@H](CO)NC(=O)[C@H](CC(C)C)NC(=O)CNC(=O)[C@H](CCCCN)NC(=O)[C@H](CCCCN)NC(=O)[C@H](CCC(N)=O)NC(=O)[C@H](C)NC(=O)CNC(=O)[C@H](CCC(=O)O)NC(=O)[C@H](Cc2ccc(O)cc2)NC(=O)COCCOCCNC(=O)COCCOCCNC(=O)CC[C@H](NC(=O)CCCCCCCCCCCCCCCCC(=O)O)C(=O)O)CSSC[C@@H](C(=O)O)NC(=O)CNC(=O)[C@H](CC(C)C)NC(=O)CNC(=O)[C@H](CO)NC(=O)[C@H](CC(C)C)NC(=O)[C@H](CO)NC(=O)CNC1=O", "note": "[compound 1227] ({C18 diacid-γGlu-AEEA-AEEA}-YEGAQKKGLSSGCFGLPLDRIGSLSGLGC-OH; disulfide 13-29)", "values": [
      {"measurement": "hNPR2 0% HSA. [EC50% rel CNP]", "value": 38.2, "unit": "%"}
    ]},
    {"smiles": "CC[C@H](C)[C@@H]1NC(=O)[C@H](CCCNC(=N)N)NC(=O)[C@H](CC(=O)O)NC(=O)[C@H](CC(C)C)NC(=O)[C@@H]2CCCN2C(=O)[C@H](CC(C)C)NC(=O)CNC(=O)[C@H](Cc2ccccc2)NC(=O)[C@@H](NC(=O)CNC(=O)[C@H](CO)NC(=O)[C@H](CO)NC(=O)[C@H](CC(C)C)NC(=O)CNC(=O)[C@H](CCCCN)NC(=O)[C@H](CCCCN)NC(=O)[C@H](CCC(N)=O)NC(=O)[C@H](C)NC(=O)CNC(=O)[C@H](CCCCN)NC(=O)[C@H](Cc2ccc(O)cc2)NC(=O)COCCOCCNC(=O)COCCOCCNC(=O)CC[C@H](NC(=O)CCCCCCCCCCCCCCCCC(=O)O)C(=O)O)CSSC[C@@H](C(=O)O)NC(=O)CNC(=O)[C@H](CC(C)C)NC(=O)CNC(=O)[C@H](CO)NC(=O)[C@H](CC(C)C)NC(=O)[C@H](CO)NC(=O)CNC1=O", "note": "[compound 1233] ({C18 diacid-γGlu-AEEA-AEEA}-YKGAQKKGLSSGCFGLPLDRIGSLSGLGC-OH; disulfide 13-29)", "values": [
      {"measurement": "hNPR2 0% HSA. [EC50% rel CNP]", "value": 49.7, "unit": "%"}
    ]},
    {"smiles": "CC[C@H](C)[C@@H]1NC(=O)[C@H](CCCNC(=N)N)NC(=O)[C@H](CC(=O)O)NC(=O)[C@H](CC(C)C)NC(=O)[C@H](CCCCN)NC(=O)[C@H](CC(C)C)NC(=O)CNC(=O)[C@H](Cc2ccccc2)NC(=O)[C@@H](NC(=O)CNC(=O)[C@H](CCCCN)NC(=O)[C@H](CO)NC(=O)[C@H](CC(C)C)NC(=O)CNC(=O)[C@H](CCCCN)NC(=O)[C@H](CCCCN)NC(=O)[C@H](CCC(N)=O)NC(=O)[C@H](C)NC(=O)CNC(=O)[C@H](Cc2c[nH]cn2)NC(=O)[C@H](CCC(=O)O)NC(=O)COCCOCCNC(=O)COCCOCCNC(=O)CC[C@H](NC(=O)CCCCCCCCCCCCCCCCC(=O)O)C(=O)O)CSSC[C@@H](C(=O)O)NC(=O)CNC(=O)[C@H](CC(C)C)NC(=O)CNC(=O)[C@H](CO)NC(=O)[C@H](CC(C)C)NC(=O)[C@H](CO)NC(=O)CNC1=O", "note": "[compound 1235]", "values": [
      {"measurement": "EC50", "value": 1.17, "unit": "nM"},
      {"measurement": "hNPR2 0% HSA. [EC50% rel CNP]", "value": 27.2, "unit": "%"}
    ]},
    {"smiles": "CC[C@H](C)[C@@H]1NC(=O)[C@H](CCCNC(=N)N)NC(=O)[C@H](CC(=O)O)NC(=O)[C@H](CC(C)C)NC(=O)[C@@H]2CCCN2C(=O)[C@H](CC(C)C)NC(=O)CNC(=O)[C@H](Cc2ccccc2)NC(=O)[C@@H](NC(=O)CNC(=O)[C@H](CO)NC(=O)[C@H](CO)NC(=O)[C@H](CC(C)C)NC(=O)CNC(=O)[C@H](CCCCN)NC(=O)[C@H](CCCCN)NC(=O)[C@H](CCC(N)=O)NC(=O)[C@H](C)NC(=O)CNC(=O)[C@H](Cc2c[nH]cn2)NC(=O)[C@H](Cc2ccc(O)cc2)NC(=O)COCCOCCNC(=O)COCCOCCNC(=O)CC[C@H](NC(=O)CCCCCCCCCCCCCCCCC(=O)O)C(=O)O)CSSC[C@@H](C(=O)O)NC(=O)CNC(=O)[C@H](CC(C)C)NC(=O)CNC(=O)[C@H](CO)NC(=O)[C@H](CC(C)C)NC(=O)[C@H](CO)NC(=O)CNC1=O", "note": "[compound 1241] ({C18 diacid-γGlu-AEEA-AEEA}-YHGAQKKGLSSGCFGLPLDRIGSLSGLGC-OH; disulfide 13-29)", "values": [
      {"measurement": "hNPR2 0% HSA. [EC50% rel CNP]", "value": 30.5, "unit": "%"}
    ]},
    {"smiles": "CC[C@H](C)[C@@H]1NC(=O)[C@H](CCCNC(=N)N)NC(=O)[C@H](CC(=O)O)NC(=O)[C@H](CC(C)C)NC(=O)[C@@H]2CCCN2C(=O)[C@H](CC(C)C)NC(=O)CNC(=O)[C@H](Cc2ccccc2)NC(=O)[C@@H](NC(=O)CNC(=O)[C@H](CO)NC(=O)[C@H](CO)NC(=O)[C@@H](NC(=O)CNC(=O)[C@@H](NC(=O)[C@H](CCCCN)NC(=O)[C@H](CCC(N)=O)NC(=O)[C@H](C)NC(=O)CNC(=O)[C@H](Cc2c[nH]cn2)NC(=O)[C@H](Cc2ccc(O)cc2)NC(=O)COCCOCCNC(=O)COCCOCCNC(=O)CC[C@H](NC(=O)CCCCCCCCCCCCCCCCC(=O)O)C(=O)O)[C@@H](C)O)C(C)C)CSSC[C@@H](C(=O)O)NC(=O)CNC(=O)[C@H](CC(C)C)NC(=O)CNC(=O)[C@H](CO)NC(=O)[C@H](CC(C)C)NC(=O)[C@H](CO)NC(=O)CNC1=O", "note": "[compound 1303] ({C18 diacid-γGlu-AEEA-AEEA}-YHGAQKTGVSSGCFGLPLDRIGSLSGLGC-OH; disulfide 13-29)", "values": [
      {"measurement": "hNPR2 0% HSA. [EC50% rel CNP]", "value": 25.5, "unit": "%"}
    ]},
    {"smiles": "CC[C@H](C)[C@@H]1NC(=O)[C@H](CCCNC(=N)N)NC(=O)[C@H](CC(=O)O)NC(=O)[C@H](CC(C)C)NC(=O)[C@@H]2CCCN2C(=O)[C@H](CC(C)C)NC(=O)CNC(=O)[C@H](Cc2ccccc2)NC(=O)[C@@H](NC(=O)CNC(=O)[C@H](CO)NC(=O)[C@H](CO)NC(=O)[C@H](CC(C)C)NC(=O)CNC(=O)[C@@H](NC(=O)[C@H](Cc2c[nH]cn2)NC(=O)[C@H](CCC(N)=O)NC(=O)[C@H](C)NC(=O)CNC(=O)[C@H](Cc2c[nH]cn2)NC(=O)[C@H](Cc2ccc(O)cc2)NC(=O)COCCOCCNC(=O)COCCOCCNC(=O)CC[C@H](NC(=O)CCCCCCCCCCCCCCCCC(=O)O)C(=O)O)[C@@H](C)O)CSSC[C@@H](C(=O)O)NC(=O)CNC(=O)[C@H](CC(C)C)NC(=O)CNC(=O)[C@H](CO)NC(=O)[C@H](CC(C)C)NC(=O)[C@H](CO)NC(=O)CNC1=O", "note": "[compound 1304] ({C18 diacid-γGlu-AEEA-AEEA}-YHGAQHTGLSSGCFGLPLDRIGSLSGLGC-OH; disulfide 13-29)", "values": [
      {"measurement": "hNPR2 0% HSA. [EC50% rel CNP]", "value": 20.7, "unit": "%"}
    ]}
  ]
}
